Test results as given in patent publication US11096942B2, “Heterocyclic compounds and uses thereof” (Celgene CAR LLC, priority 2010, dated 2021).
Where two headings read alike, the source gives them in different places.

How the values were obtained:
[1] = tested on: H1975 cells (EGFR L858R/T790M); assay: Cell proliferation (CellTiter Glo, 72 hr), H1975 cells; type: cell-based, human
Procedure: (§1) A431 human epidermoid carcinoma, H1975 human NSCLC and HCC827 human NSCLC adenocarcinoma cells were obtained from the American Type Culture Center (Manassas, Va.). A431 cells were grown in DMEM (Invitrogen, Carlsbad, Calif.) supplemented with 10% FBS (HyClone, South Logan, Utah) and 1% Penicillin-Streptomycin (P/S, Lonza, Walkersville, Md.).
(§2) Cells were plated in Growth Media supplemented with 5% FBS and 1% P/S at a density of 3,000 cells per well in 96 well tissue culture plates (Corning). […] Growth inhibition (GI50) values were determined by Graph Pad Prism.

[2] = tested on: HCC827 cells (EGFR delE746-A750); assay: Cell proliferation (CellTiter Glo, 72 hr), HCC827 cells; type: cell-based, human
Procedure: as §1, §2

[3] = target: EGFR L858R/T790M (H1975 cells) (Homo sapiens (Human), UniProt P00533, L858R/T790M); assay: Phospho-EGFR signaling immunoblot (1 hr), H1975 cells; type: cell-based; details: WT EGFR (A431) vs H1975
Procedure: as §1
All primary antibodies were obtained from Cell Signaling (Danvers, Mass.) and used at 1:1000. Secondary antibodies were used at 1:10,000. Goat anti-mouse IgG IRDye 800CW antibody was obtained from LiCor Biosciences (Lincoln, Nebr.) and goat anti-rabbit IgG Alexa Fluor 680 was obtained from Invitrogen.
Cells were grown in 12-well plates (Corning, Coring, N.Y.) to 90% confluence and then incubated in low-serum (0.1% FBS) media for 16-18 hr. […] A431 cells were then stimulated with 50 ng/ml EGF (Peprotech, Rocky Hill, N.J.) for 15 min. After treatment, cell monolayers were washed with cold PBS (Invitrogen) and immediately lysed by scrapping into 60 uL cold Cell Extraction Buffer (Invitrogen) supplemented with Complete Protease inhibitors (Roche, Indianapolis, Ind.) and PhosphoSTOP (Roche) phosphatase inhibitors.
Phospho-protein signals were quantitated using Odyssey Infrared Imaging (Li-Cor Biosciences).
To assess phosphor-EGFR signaling, blots were probed with rabbit anti-Phospho-EGFR (Y1068) and mouse total anti-EGFR antibodies. Phospho-EGFR signal was normalized to total EGFR expression for each sample. […] Normalized data was fitted using a sigmoidal curve analysis program (Graph Pad Prism version 5) with variable Hill slope to determine the EC50 values.

[4] = proliferation, WT EGFR (A431) vs H1975
[5] = proliferation, WT EGFR (A431) vs HCC827

Compound	Ratio WT/mutant [1, 4]	Ratio WT/mutant [2, 5]	Ratio WT/mutant [3]	Ratio WT/mutant [1]	Ratio WT/mutant [2]
C=CC(=O)Nc1cccc(Nc2nc(Nc3ccc(N4CCCN(C(=O)C(F)(F)F)CC4)cc3OC)ncc2C(F)(F)F)c1 [Compound I-19, N-(3-(2-(2-methoxy-4-(4-(2,2,2-trifluoroacetyl)-1,4-diazepan-1-yl)phenylamino)-5-(trifluoromethyl)pyrimidin-4-ylamino)phenyl)acrylamide]	>5	>10	–	–	–
C=CC(=O)Nc1cccc(Nc2nc(Nc3ccc(N4CCN(C(=O)CC)CC4)cc3OC)ncc2C(F)(F)F)c1 [Compound I-35, N-(3-(2-(2-methoxy-4-(4-propionylpiperazin-1-yl)phenylamino)-5-(trifluoromethyl)pyrimidin-4-ylamino)phenyl)acrylamide]	>10	>25	–	–	–
C=CC(=O)Nc1cccc(Nc2nc(Nc3ccc(N4CCN(C(C)=O)[C@H](C(=O)OC)C4)cc3OC)ncc2C(F)(F)F)c1 [Compound I-48, (S)-methyl 1-acetyl-4-(4-(4-(3-acrylamidophenylamino)-5-(trifluoromethyl)pyrimidin-2-ylamino)-3-methoxyphenyl)piperazine-2-carboxylate]	>10	>15	>50	–	–
C=CC(=O)Nc1cccc(Nc2nc(Nc3ccc(N4CCCN(C(C)=O)CC4)cc3OC)ncc2C(F)(F)F)c1 [Compound I-7, N-(3-(2-(4-(4-acetyl-1,4-diazepan-1-yl)-2-methoxyphenylamino)-5-(trifluoromethyl)pyrimidin-4-ylamino)phenyl)acrylamide]	>1	>10	>5	–	–
C=CC(=O)Nc1cccc(Oc2nc(Nc3ccc(N4CCN(S(N)(=O)=O)CC4)cc3OC)ncc2C(F)(F)F)c1 [Compound I-27, N-(3-(2-(2-methoxy-4-(4-sulfamoylpiperazin-1-yl)phenylamino)-5-(trifluoromethyl)pyrimidin-4-yloxy)phenyl)acrylamide]	>1	>10	–	–	–
C=CC(=O)Nc1cccc(Oc2nc(Nc3ccc(N4CCN(C(=O)CO)CC4)cc3OC)ncc2C(F)(F)F)c1 [Compound I-11, N-(3-(2-(4-(4-(2-hydroxyacetyl)piperazin-1-yl)-2-methoxyphenylamino)-5-(trifluoromethyl)pyrimidin-4-yloxy)phenyl)acrylamide]	>5	>45	>15	–	–
C=CC(=O)Nc1cccc(Nc2nc(Nc3ccc(N4CCN(C(=O)C(C)(C)C)CC4)cc3OC)ncc2C(F)(F)F)c1 [Compound I-34, N-(3-(2-(2-methoxy-4-(4-pivaloylpiperazin-1-yl)phenylamino)-5-(trifluoromethyl)pyrimidin-4-ylamino)phenyl)acrylamide]	>5	>50	>35	–	–
C=CC(=O)Nc1cccc(Nc2nc(Nc3ccc(N4CCN(C(C)=O)CC4)cc3OC)ncc2Br)c1 [Compound I-40, N-(3-(2-(4-(4-acetylpiperazin-1-yl)-2-methoxyphenylamino)-5-bromopyrimidin-4-ylamino)phenyl)acrylamide]	>5	>10	>1	–	–
C=CC(=O)Nc1cccc(Oc2nc(Nc3ccc(N4CCN(C(=O)CO)CC4)cc3OC)ncc2Cl)c1 [Compound I-3, N-(3-(5-chloro-2-(4-(4-(2-hydroxyacetyl)piperazin-1-yl)-2-methoxyphenylamino)pyrimidin-4-yloxy)phenyl)acrylamide]	>5	>45	>5	–	–
C=CC(=O)Nc1cccc(Oc2nc(Nc3ccc(N4CCCOCC4)cc3OC)ncc2Cl)c1 [Compound I-37, N-(3-(5-chloro-2-(2-methoxy-4-(1,4-oxazepan-4-yl)phenylamino)pyrimidin-4-yloxy)phenyl)acrylamide]	>1	>10	–	–	–
C=CC(=O)Nc1cccc(Oc2nc(Nc3ccc(N4CCN(C(=O)OC(C)(C)C)CC4)cc3OCC)ncc2Cl)c1 [Compound I-18, tert-butyl 4-(4-(4-(3-acrylamidophenoxy)-5-chloropyrimidin-2-ylamino)-3-ethoxyphenyl)piperazine-1-carboxylate]	>1	>5	–	–	–
C=CC(=O)Nc1cccc(Oc2nc(Nc3ccc(N4CCOCC4)cc3OC(F)F)ncc2C(F)(F)F)c1 [Compound I-13, N-(3-(2-(2-(difluoromethoxy)-4-morpholinophenylamino)-5-(trifluoromethyl)pyrimidin-4-yloxy)phenyl)acrylamide]	>10	>50	–	–	–
C=CC(=O)Nc1cccc(Nc2nc(Nc3ccc(N4CCN(C(=O)OC(C)(C)C)[C@H](C(=O)OC)C4)cc3OC)ncc2C(F)(F)F)c1 [Compound I-50, (S)-1-tert-butyl 2-methyl 4-(4-(4-(3-acrylamidophenylamino)-5-(trifluoromethyl)pyrimidin-2-ylamino)-3-methoxyphenyl)piperazine-1,2-dicarboxylate]	>10	>50	–	–	–
C=CC(=O)Nc1cccc(Oc2nc(Nc3ccc(N4CCN(C(=O)OC)CC4)cc3OC)ncc2C(F)(F)F)c1 [Compound I-20, methyl 4-(4-(4-(3-acrylamidophenoxy)-5-(trifluoromethyl)pyrimidin-2-ylamino)-3-methoxyphenyl)piperazine-1-carboxylate]	–	–	–	>5	>15
C=CC(=O)Nc1cccc(Oc2nc(Nc3ccc(N4CCCN(C(=O)OC(C)(C)C)CC4)cc3OC)ncc2C(F)(F)F)c1 [Compound I-39, tert-butyl 4-(4-(4-(3-acrylamidophenoxy)-5-(trifluoromethyl)pyrimidin-2-ylamino)-3-methoxyphenyl)-1,4-diazepane-1-carboxylate]	<1	>1	–	–	–
C=CC(=O)Nc1cccc(Nc2nc(Nc3ccc(N4CCCOCC4)cc3OC)ncc2C(F)(F)F)c1 [Compound I-38, N-(3-(2-(2-methoxy-4-(1,4-oxazepan-4-yl)phenylamino)-5-(trifluoromethyl)pyrimidin-4-ylamino)phenyl)acrylamide]	>1	>5	–	–	–
C=CC(=O)Nc1cccc(Nc2nc(Nc3ccc(N4CCN(C(=O)NC)CC4)cc3OC)ncc2C(F)(F)F)c1 [Compound I-28, 4-(4-(4-(3-acrylamidophenylamino)-5-(trifluoromethyl)pyrimidin-2-ylamino)-3-methoxyphenyl)-N-methylpiperazine-1-carboxamide]	>5	>50	–	–	–
C=CC(=O)Nc1cccc(Nc2nc(Nc3ccc(N4CCN(C(=O)OC)CC4)cc3OC)ncc2C(F)(F)F)c1 [Compound I-29, methyl 4-(4-(4-(3-acrylamidophenylamino)-5-(trifluoromethyl)pyrimidin-2-ylamino)-3-methoxyphenyl)piperazine-1-carboxylate]	>10	>15	–	–	–
C=CC(=O)Nc1cccc(Oc2nc(Nc3ccc(N4CCN(C(C)=O)CC4)cc3OC)ncc2Cl)c1 [Compound I-9, N-(3-(2-(4-(4-acetylpiperazin-1-yl)-2-methoxyphenylamino)-5-chloropyrimidin-4-yloxy)phenyl)acrylamide]	>5	>50	–	–	–
C=CC(=O)Nc1cccc(Nc2nc(Nc3ccc(N4CCOCC4)cc3OC)ncc2Cl)c1 [Compound I-15, N-(3-(5-chloro-2-(2-methoxy-4-morpholinophenylamino)pyrimidin-4-ylamino)phenyl)acrylamide]	>1	>10	–	–	–
C=CC(=O)Nc1cccc(Oc2nc(Nc3ccc(N4CCN(C(=O)CC(C)(C)C)CC4)cc3OC)ncc2Cl)c1 [Compound I-23, N-(3-(5-chloro-2-(4-(4-(3,3-dimethylbutanoyl)piperazin-1-yl)-2-methoxyphenylamino)pyrimidin-4-yloxy)phenyl)acrylamide]	>1	>20	–	–	–
C=CC(=O)Nc1cccc(Oc2nc(Nc3ccc(N4CCOCC4)cc3OC(F)F)ncc2Cl)c1 [Compound I-36, N-(3-(5-chloro-2-(2-(difluoromethoxy)-4-morpholinophenylamino)pyrimidin-4-yloxy)phenyl)acrylamide]	>25	>50	–	–	–
C=CC(=O)Nc1cccc(Oc2nc(Nc3ccc(N4CCN(C(C)=O)CC4)cc3OC)ncc2C(F)(F)F)c1 [Compound I-10, N-(3-(2-(4-(4-acetylpiperazin-1-yl)-2-methoxyphenylamino)-5-(trifluoromethyl)pyrimidin-4-yloxy)phenyl)acrylamide]	>1	>20	–	–	–
